Here are results for 1 molecule from patent US7816074B2, “α4 β2 δGABA-A receptors as a strategy for PMS and alcoholism” (priority 2003, dated 2010).

Holding throughout (type): in vivo, rat
Experiment [1] relates to δ and α4 GABAA receptor subunit proteins. The experiment in a line: Western blot of δ and α4 subunits in hippocampus after progesterone withdrawal. The method, then:
(§1) Crystalline progesterone was administered via a silicone capsule ( 1/16″ i.d., ⅛″ o.d.) implanted subcutaneously (10 mm length/100 gm body weight) in female rats (110-120 grams, in vitro studies; 220-250 grams, behavioral studies) for 21 days. Control rats were implanted with an empty capsule. […] Animals were tested 24 hours after removal of the implant.
Membranes prepared from hippocampal tissue were solubilized and electrophoresed on 9% SDS-polyacrylamide gels before transfer to a polyvinyldifluoride membrane, as described (65,69). Polyclonal antiserum against the δ subunit (Asr^318-Leu^400) was supplied by Dr. R. McKernan (Merck)(56) and is visualized as a 54 kDa band. Membranes were also probed with an antibody for the α4 GABAA receptor subunit (67 kDa) (64), developed according to a previously described protocol (38), and a commercial antibody for the control protein GAPDH (glyceraldehyde-3-phosphate dehydrogenase; 36 kDa). Membranes were incubated for 1-2 hours at room temperature with 1:10,000 (α4), 1:7,000 (δ) or 1:20,000 (GAPDH) dilution of antibody followed by addition of 1:5,000 horseradish-peroxidase-conjugated donkey anti-rabbit IgG (Amersham). Band densities were quantified using densitometry with One-Dscan software after normalization to the GAPDH control. Reagents were obtained from Sigma/Genosys.

The test system of another experiment is GABAR α4 subunit. The experiment in a line: Western blot of α4 subunit in hippocampus after steroid and ethanol administration. The conditions noted are these: steroid withdrawal after 21 days progesterone. On the procedure:
Animals were administered steroids using one of two protocols: (i) For the 48 hour steroid administration protocol, animals were injected with 10 mg/kg 3α, 5β THP in oil, i.p., on a daily basis for three days and sacrificed 1-2 hour following the final injection. Controls were injected with oil vehicle. […] At this time, the capsule was removed and the animals were injected with 17 β estradiol (2 μgs/animal) in order to reset their cycle. Animals were sacrificed 24 hours later. […] In all cases, implantation and removal of capsules were performed under halothane anesthesia. […] Therefore, this study employed the 5β isomer of the steroid.
In some groups of animals, either ethanol (0.5 g/kg in saline) or saline vehicle was administered i.p. (3×, every 40 minutes) for the final 2 hours of the respective steroid administration or withdrawal paradigm. The use of multiple injections of low doses of ethanol would approximate ethanol consumption in the human more closely than would a single injection. For the 48 hour steroid administration paradigm, animals received their first ethanol injection immediately after the steroid injection, and subsequent injections at 40 minute intervals. In all cases, animals were sacrificed 40 minutes after the final ethanol injection (2 hours after the first ethanol injection and final steroid injection). All animal protocols were carried out with the approval of the Institutional Animal Care and Use Committee.
Hippocampi removed from steroid or vehicle-treated animals were homogenized, and membranes prepared as previously described (65). Following electrophoresis on 8% SDS polyacrylamide gels, membranes were transferred to a nitrocellulose membrane (Bio-Rad, Hercules, Calif.). α4 subunit levels were detected by evaluating the band density at 67 kDa after probing with a polyclonal antibody (64). Membranes were incubated for 1-2 hours at room temperature with a 1:5000 dilution of horseradish peroxidase-conjugated donkey anti-rabbit IgG (Amersham, Arlington Heights, Ill.), and visualized with enhanced chemiluminescence with varying concentrations of protein in the linear range. Immunoreactive band densities were quantified using a CCD camera (UMAX Scanner) and one-Dscan software, which uses multiple Gaussian fits to achieve accurate band density profiles.

For another experiment, the system named is δ subunit mRNA. Description: Semi-quantitative RT-PCR of δ subunit in hippocampus. The conditions noted are these: after progesterone withdrawal. The method, then: as §1
Following isolation of total RNA from hippocampus, reverse transcription (SuperScript II, Rnase RT, GibcoBRL) yielded complementary DNA (cDNA) which was amplified with PCR methods (65) using oligonucleotide primers for the δ subunit (398 bp)(70) and GAPDH (657 bp, Operon). Twenty three to thirty amplification cycles were used for two different concentrations of cDNA (25 or 50 ng) to detect band densities within a linear range (15). Following gel electrophoresis (FMC Bioproducts), the density of DNA bands stained with ethidium bromide was quantified and normalized to the GAPDH control.

The structures appear in SMILES notation.

As to `CC(=O)[C@H]1CC[C@H]2[C@@H]3CCC4=CC(=O)CC[C@]4(C)[C@H]3CC[C@]12C` [progesterone], in experiment [1], the “expression of α4 subunit protein in hippocampus” value is reported as “three-fold” and the “expression of δ subunit protein in hippocampus” value was “three-fold”. Further, in the experiment on GABAR α4 subunit, the “increase of α4 expression” value was “threefold”. In addition, in the experiment with δ subunit mRNA, the “δ subunit mRNA in hippocampus” value is given as “three-fold”.
